Data from ChEMBL document CHEMBL4308841, “Synthesis, in vitro antiproliferative activity, and kinase inhibitory effects of pyrazole-containing diarylureas and diarylamides” (Eur J Med Chem, 2018).
pIC50: −log10 of the molar value.

Legend:
NCI-H226 [1] = assay: Growth inhibition of human NCI-H226 cells incubated for 48 hrs by sulforhodamine B assay; type: functional, cell-based; details: NCI-H226, 48 h
HCT-116 = assay: Growth inhibition of human HCT116 cells incubated for 48 hrs by sulforhodamine B assay; type: functional, cell-based; details: HCT-116, 48 h
KM12 [2] = assay: Growth inhibition of human KM12 cells incubated for 48 hrs by sulforhodamine B assay; type: functional, cell-based; details: KM12, 48 h
SF-268 = assay: Growth inhibition of human SF268 cells incubated for 48 hrs by sulforhodamine B assay; type: functional, cell-based; details: SF-268, 48 h
UACC-62 [3] = assay: Growth inhibition of human UACC62 cells incubated for 48 hrs by sulforhodamine B assay; type: functional, cell-based; details: UACC-62, 48 h
ACHN = assay: Growth inhibition of human ACHN cells incubated for 48 hrs by sulforhodamine B assay; type: functional, cell-based
CAKI-1 = assay: Growth inhibition of human Caki1 cells incubated for 48 hrs by sulforhodamine B assay; type: functional, cell-based; details: CAKI-1, 48 h
DU-145 = assay: Growth inhibition of human DU145 cells incubated for 48 hrs by sulforhodamine B assay; type: functional, cell-based; details: DU-145, 48 h
NCI-H23 [4] = assay: Growth inhibition of human NCI-H23 cells assessed as cell growth at 0.01 uM incubated for 48 hrs by sulforhodamine B assay relative to control; type: functional; details: NCI-H23, 48 h, read-out: Activity
SNB-75 = assay: Growth inhibition of human SNB75 cells assessed as cell growth at 0.01 uM incubated for 48 hrs by sulforhodamine B assay relative to control; type: functional; details: SNB-75, 48 h, read-out: Activity
SK-MEL-5 = assay: Growth inhibition of human SK-MEL-5 cells assessed as cell growth at 0.01 uM incubated for 48 hrs by sulforhodamine B assay relative to control; type: functional; details: SK-MEL-5, 48 h, read-out: Activity
MDA-MB-468 = assay: Growth inhibition of human MDA-MB-468 cells assessed as cell growth at 0.01 uM incubated for 48 hrs by sulforhodamine B assay relative to control; type: functional; details: MDA-MB-468, 48 h, read-out: Activity
NCI-H226 [5] = assay: Growth inhibition of human NCI-H226 cells assessed as cell growth at 0.1 uM incubated for 48 hrs by sulforhodamine B assay relative to control; type: functional; details: NCI-H226, 48 h, read-out: Activity
NCI-H23 [6] = assay: Growth inhibition of human NCI-H23 cells assessed as cell growth at 0.1 uM incubated for 48 hrs by sulforhodamine B assay relative to control; type: functional; details: NCI-H23, 48 h, read-out: Activity
U-251 = assay: Growth inhibition of human U251 cells assessed as cell growth at 0.1 uM incubated for 48 hrs by sulforhodamine B assay relative to control; type: functional; details: U-251, 48 h, read-out: Activity
SK-MEL-28 = assay: Growth inhibition of human SK-MEL-28 cells assessed as cell growth at 0.1 uM incubated for 48 hrs by sulforhodamine B assay relative to control; type: functional; details: SK-MEL-28, 48 h, read-out: Activity
OVCAR-8 = assay: Growth inhibition of human OVCAR8 cells assessed as cell growth at 0.1 uM incubated for 48 hrs by sulforhodamine B assay relative to control; type: functional; details: OVCAR-8, 48 h, read-out: Activity
SNB-19 = assay: Growth inhibition of human SNB19 cells assessed as cell growth at 1 uM incubated for 48 hrs by sulforhodamine B assay relative to control; type: functional; details: SNB-19, 48 h, read-out: Activity
UACC-62 [7] = assay: Growth inhibition of human UACC62 cells assessed as cell growth at 1 uM incubated for 48 hrs by sulforhodamine B assay relative to control; type: functional; details: UACC-62, 48 h, read-out: Activity
OVCAR-4 = assay: Growth inhibition of human OVCAR4 cells assessed as cell growth at 1 uM incubated for 48 hrs by sulforhodamine B assay relative to control; type: functional; details: OVCAR-4, 48 h, read-out: Activity
RXF 393 = assay: Growth inhibition of human RXF393 cells assessed as cell growth at 1 uM incubated for 48 hrs by sulforhodamine B assay relative to control; type: functional; details: RXF 393, 48 h, read-out: Activity
SN12C = assay: Growth inhibition of human SN12C cells assessed as cell growth at 1 uM incubated for 48 hrs by sulforhodamine B assay relative to control; type: functional; details: read-out: Activity
RPMI-8226 = assay: Growth inhibition of human RPMI8226 cells assessed as cell growth at 100 uM incubated for 48 hrs by sulforhodamine B assay relative to control; type: functional; details: RPMI-8226, 48 h, read-out: Activity
SR = assay: Growth inhibition of human SR cells assessed as cell growth at 100 uM incubated for 48 hrs by sulforhodamine B assay relative to control; type: functional; details: read-out: Activity
KM12 [8] = assay: Growth inhibition of human KM12 cells assessed as cell growth at 100 uM incubated for 48 hrs by sulforhodamine B assay relative to control; type: functional; details: KM12, 48 h, read-out: Activity
UACC-62 [9] = assay: Growth inhibition of human UACC62 cells assessed as cell growth at 100 uM incubated for 48 hrs by sulforhodamine B assay relative to control; type: functional; details: UACC-62, 48 h, read-out: Activity
A498 = assay: Growth inhibition of human A498 cells assessed as cell growth at 100 uM incubated for 48 hrs by sulforhodamine B assay relative to control; type: functional; details: A498, 48 h, read-out: Activity
PC-3 = assay: Growth inhibition of human PC3 cells assessed as cell growth at 100 uM incubated for 48 hrs by sulforhodamine B assay relative to control; type: functional; details: PC-3, 48 h, read-out: Activity
[10] = read-out: LC50 (the source's name)
[11] = read-out: pLC50 (the source's name) (converted)

With COc1cc(Cl)cc(-c2nn(-c3cccc(NC(=O)c4ccc(N5CCOCC5)c(C(F)(F)F)c4)c3)cc2-c2ccncc2)c1 the GI50 (NCI-H226 [1]; read-out: GI50) was 9.34 µM, the LC50 (NCI-H226 [1]; read-out: LC50) was > 100 µM and the TGI (NCI-H226 [1]; read-out: TGI) was > 100 µM. The GI50 (NCI-H226 [1]; read-out: pGI50 (converted)) was 93.3 µM, the LC50 (NCI-H226 [1]; read-out: pLC50 (converted)) was > 100 µM and the TGI (NCI-H226 [1]; read-out: pTGI (converted)) was > 100 µM. For the same molecule, the pIC50 (HCT-116) was 5.02, the GI50 (HCT-116; read-out: GI50) was 9.54 µM and the CC50 (HCT-116; [10]) was > 100 µM. For the same molecule, the TGI (HCT-116; read-out: TGI) was > 100 µM, the GI50 (HCT-116; read-out: pGI50 (converted)) was 9.55 µM and the CC50 (HCT-116; [11]) was > 100 µM. The TGI (HCT-116; read-out: pTGI (converted)) was > 100 µM, the GI50 (KM12 [2]; read-out: GI50) was 5.38 µM and the CC50 (KM12 [2]; [10]) was > 100 µM. The TGI (KM12 [2]; read-out: TGI) was > 100 µM, the GI50 (KM12 [2]; read-out: pGI50 (converted)) was 5.37 µM and the CC50 (KM12 [2]; [11]) was > 100 µM. The TGI (KM12 [2]; read-out: pTGI (converted)) was > 100 µM, the GI50 (SF-268; read-out: GI50) was > 100 µM and the CC50 (SF-268; [10]) was > 100 µM. The TGI (SF-268; read-out: TGI) was > 100 µM, the GI50 (SF-268; read-out: pGI50 (converted)) was > 100 µM and the CC50 (SF-268; [11]) was > 100 µM. For the same molecule, the TGI (SF-268; read-out: pTGI (converted)) was > 100 µM, the pIC50 (UACC-62 [3]) was 5.04 and the GI50 (UACC-62 [3]; read-out: GI50) was 9.1 µM. For the same molecule, the CC50 (UACC-62 [3]; [10]) was > 100 µM, the TGI (UACC-62 [3]; read-out: TGI) was > 100 µM and the GI50 (UACC-62 [3]; read-out: pGI50 (converted)) was 9.12 µM. The CC50 (UACC-62 [3]; [11]) was > 100 µM, the TGI (UACC-62 [3]; read-out: pTGI (converted)) was > 100 µM and the GI50 (ACHN; read-out: GI50) was 7.31 µM. For the same molecule, the CC50 (ACHN; [10]) was > 100 µM, the TGI (ACHN; read-out: TGI) was > 100 µM and the GI50 (ACHN; read-out: pGI50 (converted)) was 7.24 µM. For the same molecule, the CC50 (ACHN; [11]) was > 100 µM, the TGI (ACHN; read-out: pTGI (converted)) was > 100 µM and the GI50 (CAKI-1; read-out: GI50) was 4.4 µM. For the same molecule, the CC50 (CAKI-1; [10]) was > 100 µM, the TGI (CAKI-1; read-out: TGI) was > 100 µM and the GI50 (CAKI-1; read-out: pGI50 (converted)) was 4.37 µM. The CC50 (CAKI-1; [11]) was > 100 µM, the TGI (CAKI-1; read-out: pTGI (converted)) was > 100 µM and the GI50 (DU-145; read-out: GI50) was > 100 µM. The CC50 (DU-145; [10]) was > 100 µM, the TGI (DU-145; read-out: TGI) was > 100 µM and the GI50 (DU-145; read-out: pGI50 (converted)) was > 100 µM. For the same molecule, the CC50 (DU-145; [11]) was > 100 µM, the TGI (DU-145; read-out: pTGI (converted)) was > 100 µM and the growth at 0.01 µM (NCI-H23 [4]) was 92%. For the same molecule, the growth at 0.01 µM (SNB-75) was 58%, the growth at 0.01 µM (SK-MEL-5) was 97% and the growth at 0.01 µM (MDA-MB-468) was 94%. For the same molecule, the growth at 0.1 µM (NCI-H226 [5]) was 98%, the growth at 0.1 µM (NCI-H23 [6]) was 90% and the growth at 0.1 µM (U-251) was 95%. The growth at 0.1 µM (SK-MEL-28) was 103%, the growth at 0.1 µM (OVCAR-8) was 100% and the growth at 1 µM (SNB-19) was 92%. It also gave a growth at 1 µM (UACC-62 [7]) of 84%, a growth at 1 µM (OVCAR-4) of 94% and a growth at 1 µM (RXF 393) of 45%. It also gave a growth at 1 µM (SN12C) of 89%, a growth at 100 µM (RPMI-8226) of 10% and a growth at 100 µM (SR) of 4%. For the same molecule, the growth at 100 µM (KM12 [8]) was 20%, the growth at 100 µM (UACC-62 [9]) was 10% and the growth at 100 µM (A498) was 24%. For the same molecule, the growth at 100 µM (PC-3) was 19%.
